Laboratory results: patent US6737383B1, “Herbicidal oxadiazolidines” (priority 1999, dated 2004)

Legend:
common ragweed = assay: Test C postemergence common ragweed; assay type: in vivo, Ambrosia elatior; details: 0 to 100 scale, 0 no effect, 100 complete control
Method: (§1) Compounds evaluated in this test were formulated in a non-phytotoxic solvent mixture which included a surfactant and applied to plants that were grown for various periods of time before treatment (postemergence application). A mixture of sandy loam soil and greenhouse potting mix in a 60:40 ratio was used for the postemergence test.
(§2) Plantings of these crops and weed species were adjusted to produce plants of appropriate size for the postemergence test. All plant species were grown using normal greenhouse practices. Crop and weed species include arrowleaf sida (Sida rhombifolia), barnyardgrass (Echinochloa crus-galli), cocklebur (Xanthium strumarium), common ragweed (Ambrosia elatior), corn (Zea mays), cotton (Gossypium hirsutum), eastern black nightshade (Solanum ptycanthum), fall panicum (Panicum dichotomiflorum), field bindweed (Convolvulus arvensis), giant foxtail (Setaria faberii), hairy beggarticks (Bidens pilosa), ivyleaf morningglory (Ipomoea hederacea), johnsongrass (Sorghum halepense), ladysthumb smartweed (Polygonum persicaria), lambsquarters (Chenopodium album), large crabgrass (Digitaria sanguinalis), purple nutsedge (Cyperus rotundus), redroot pigweed (Amaranthus retroflexus), soybean (Glycine max), surinam grass (Brachiaria decumbens), velvetleaf (Abutilon theophrasti) and wild poinsettia (Euphorbia heterophylla).
(§3) Treated plants and untreated controls were maintained in a greenhouse for approximately 14, to 21 days, after which all treated plants were compared to untreated controls and visually evaluated. Plant response ratings, summarized in Table C, were based upon a 0 to 100 scale where 0 was no effect and 100 was complete control. A dash response (−) means no test result.

corn = assay: Test C postemergence corn; assay type: in vivo, Zea mays; details: 0 to 100 scale, 0 no effect, 100 complete control
In short: (§4)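 In this greenhouse assay, treated and untreated plants were kept for approximately 14 to 21 days following postemergence application, then rated by eye on a scale from 0 (no effect) to 100 (complete control).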

johnsongrass = assay: Test C postemergence johnsongrass; assay type: in vivo, Sorghum halepense; details: 0 to 100 scale, 0 no effect, 100 complete control
Method: as §1, §2, §3

purple nutsedge = assay: Test C postemergence purple nutsedge; assay type: in vivo, Cyperus rotundus; details: 0 to 100 scale, 0 no effect, 100 complete control
In short: as §4

black nightshade [1] = assay: Test E black nightshade; assay type: in vivo, Solanum nigra; details: Postemergence
Method: as §1, with “in the 1- to 4-leaf stage” for “grown for various periods of time before treatment”
(§5) Plantings of these crops and weed species were adjusted to produce plants of appropriate size for the postemergence test. All plant species were grown using normal greenhouse practices. Crop and weed species include annual bluegrass (Poa annua), blackgrass (Alopecurus myosuroides), black nightshade (Solanum nigra), chickweed (Stellaria media), common poppy (Papaver rhoeas), deadnettle (Lamium amplexicaule), downy brome (Bromus tectorum), field violet (Viola arvensis), galium (Galium aparine), green foxtail (Setaria viridis), Italian ryegrass (Lolium multiflorum), jointed goatgrass (Aegilops cylindrica), kochia (Kochia scoparia), lambsquarters (Chenopodium album), littleseed canarygrass (Phalaris minor), rape (Brassica napus), redroot pigweed (Amaranthus retroflexus), Russian thistle (Salsola kali), scentless chamomile (Matricaria inodora), spring barley (Hordeum vulgare), sugar beet (Beta vulgaris), sunflower (Helianthus annuus), ivyleaf speedwell (Veronica hederaefolia), spring wheat (Triticum aestivum), winter wheat (Triticum aestivum), wild buckwheat (Polygonum convolvulus), wild mustard (Sinapis arvensis), wild oat (Avena fatua), windgrass (Apera spica-venti) and winter barley (Hordeum vulgare).
(§6) Treated plants and untreated controls were maintained in a greenhouse for approximately 21 to 28 days, after which all treated plants were compared to untreated controls and visually evaluated. […] A dash response (-) means no test result.

jointed goatgrass = assay: Test E jointed goatgrass; assay type: in vivo, Aegilops cylindrica; details: Postemergence
Method: as §1, with “in the 1- to 4-leaf stage” for “grown for various periods of time before treatment”
as §5, §6

rape = assay: Test E rape; assay type: in vivo, Brassica napus; details: Postemergence
In short: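 Each compound, carried in a non-phytotoxic solvent blend including surfactant, was applied (postemergence: over the top of young plants at 1- to 4-leaf stage). Plants stayed in the greenhouse about 21 to 28 days before visual comparison with untreated controls.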

sunflower [2] = assay: Test E sunflower; assay type: in vivo, Helianthus annuus; details: Postemergence
Method: as §5, with “Plantings of these crops and weed species were adjusted to produce plants of appropriate size for the postemergence test.” left out
as §6

black nightshade [3] = assay: Test E black nightshade; assay type: in vivo, Solanum nigra; details: Preemergence
field violet = assay: Test E field violet; assay type: in vivo, Viola arvensis; details: Preemergence
kochia = assay: Test E kochia; assay type: in vivo, Kochia scoparia; details: Preemergence
lambsquarters = assay: Test E lambsquarters; assay type: in vivo, Chenopodium album; details: Preemergence
sunflower [4] = assay: Test E sunflower; assay type: in vivo, Helianthus annuus; details: Preemergence
wild mustard = assay: Test E wild mustard; assay type: in vivo, Sinapis arvensis; details: Preemergence
[5] = Rate 500 g/ha, 0 to 100 scale, 0 no effect, 100 complete control
[6] = Rate 250 g/ha, 0 to 100 scale where 0 is no effect and 100 is complete control
[7] = Rate 125 g/ha, 0 to 100 scale (0 no effect, 100 complete control)
[8] = Rate 500 g/ha, 0 to 100 scale where 0 is no effect and 100 is complete control
[9] = Rate 250 g/ha, 0 to 100 scale (0 no effect, 100 complete control)

CC(C)N(C(=O)n1oc(=O)n(C(C)C)c1=O)c1ccc(F)cc1 [Compound 131]
Plant response rating Common ragweed (common ragweed; Rate 140 g/ha): 0 | Plant response rating Common ragweed (common ragweed; Rate 280 g/ha): 0 | Plant response rating Common ragweed (common ragweed; Rate 560 g/ha): 0 | Plant response rating Common ragweed (common ragweed; Rate 1120 g/ha): 0 | Plant response rating, Corn (corn; Rate 140 g/ha): 0 | Plant response rating, Corn (corn; Rate 280 g/ha): 0 | Plant response rating, Corn (corn; Rate 560 g/ha): 5 | Plant response rating, Corn (corn; Rate 1120 g/ha): 40 | Plant response rating Johnsongrass (johnsongrass; Rate 140 g/ha): 15 | Plant response rating Johnsongrass (johnsongrass; Rate 280 g/ha): 40 | Plant response rating Johnsongrass (johnsongrass; Rate 560 g/ha): 60 | Plant response rating Johnsongrass (johnsongrass; Rate 1120 g/ha): 70 | Plant response rating, Purple nutsedge (purple nutsedge; Rate 140 g/ha): 0 | Plant response rating, Purple nutsedge (purple nutsedge; Rate 280 g/ha): 0 | Plant response rating, Purple nutsedge (purple nutsedge; Rate 560 g/ha): 0 | Plant response rating, Purple nutsedge (purple nutsedge; Rate 1120 g/ha): 80 | Plant response rating, Blk nightshade (black nightshade [1]; Rate 62 g/ha, 0 to 100 scale): 50 | Plant response rating, Blk nightshade (black nightshade [1]; Rate 125 g/ha, 0 to 100 scale): 50 | Plant response rating, Blk nightshade (black nightshade [1]; [5]): 70 | Blk nightshade plant response rating (black nightshade [1]; [6]): 60 | Plant response rating, Jointed goatgra (jointed goatgrass; Rate 62 g/ha, 0 to 100 scale): 30 | Plant response rating, Jointed goatgra (jointed goatgrass; Rate 125 g/ha, 0 to 100 scale): 0 | Plant response rating, Jointed goatgra (jointed goatgrass; [5]): 60 | Jointed goatgra plant response rating (jointed goatgrass; [6]): 0 | Plant response rating, Rape (rape; Rate 62 g/ha, 0 to 100 scale): 10 | Plant response rating, Rape (rape; Rate 125 g/ha, 0 to 100 scale): 0 | Plant response rating, Rape (rape; [5]): 0 | Rape plant response rating (rape; [6]): 0 | Plant response rating, Sunflower (sunflower [2]; Rate 62 g/ha, 0 to 100 scale): 10 | Plant response rating, Sunflower (sunflower [2]; Rate 125 g/ha, 0 to 100 scale): 0 | Plant response rating, Sunflower (sunflower [2]; [5]): 0 | Sunflower plant response rating (sunflower [2]; [6]): 0 | Plant response rating, Blk nightshade (black nightshade [3]; [7]): 70 | Blk nightshade plant response rating (0 to 100 scale) (black nightshade [3]; Rate 250 g/ha): 85 | Plant response rating, Blk nightshade (black nightshade [3]; [8]): 90 | Plant response rating, Field violet (field violet; [7]): 20 | Field violet plant response rating (0 to 100 scale) (field violet; Rate 250 g/ha): 20 | Plant response rating, Field violet (field violet; [8]): 40 | Plant response rating, Kochia (kochia; [7]): 0 | Kochia plant response rating (0 to 100 scale) (kochia; Rate 250 g/ha): 10 | Plant response rating, Kochia (kochia; [8]): 100 | Plant response rating, Lambsquarters (lambsquarters; [7]): 100 | Lambsquarters plant response rating (0 to 100 scale) (lambsquarters; Rate 250 g/ha): 100 | Plant response rating, Lambsquarters (lambsquarters; [8]): 100 | Plant response rating, Sunflower (sunflower [4]; [7]): 20 | Sunflower plant response rating (0 to 100 scale) (sunflower [4]; Rate 250 g/ha): 20 | Plant response rating, Sunflower (sunflower [4]; [8]): 20 | Plant response rating, Wild mustard (wild mustard; [7]): 60 | Wild mustard plant response rating (0 to 100 scale) (wild mustard; Rate 250 g/ha): 100 | Plant response rating, Wild mustard (wild mustard; [8]): 100

CCn1c(=O)on(C(=O)N(c2ccccc2)C(C)C)c1=O [Compound 117]
Plant response rating Common ragweed (common ragweed; Rate 140 g/ha): 0 | Plant response rating Common ragweed (common ragweed; Rate 280 g/ha): 0 | Plant response rating Common ragweed (common ragweed; Rate 560 g/ha): 20 | Plant response rating Common ragweed (common ragweed; Rate 1120 g/ha): 50 | Plant response rating, Corn (corn; Rate 140 g/ha): 0 | Plant response rating, Corn (corn; Rate 280 g/ha): 0 | Plant response rating, Corn (corn; Rate 560 g/ha): 40 | Plant response rating, Corn (corn; Rate 1120 g/ha): 85 | Plant response rating Johnsongrass (johnsongrass; Rate 140 g/ha): 10 | Plant response rating Johnsongrass (johnsongrass; Rate 280 g/ha): 35 | Plant response rating Johnsongrass (johnsongrass; Rate 560 g/ha): 40 | Plant response rating Johnsongrass (johnsongrass; Rate 1120 g/ha): 85 | Plant response rating, Purple nutsedge (purple nutsedge; Rate 140 g/ha): 0 | Plant response rating, Purple nutsedge (purple nutsedge; Rate 280 g/ha): 0 | Plant response rating, Purple nutsedge (purple nutsedge; Rate 560 g/ha): 10 | Plant response rating, Purple nutsedge (purple nutsedge; Rate 1120 g/ha): 80

CC(C)N(C(=O)n1oc(=O)n(C(C)C)c1=O)c1ccc(Cl)cc1 [Compound 114]
Plant response rating, Blk nightshade (black nightshade [1]; Rate 125 g/ha, 0 to 100 scale): 50 | Plant response rating, Blk nightshade (black nightshade [1]; [9]): 40 | Plant response rating, Blk nightshade (black nightshade [1]; [5]): 80 | Plant response rating, Jointed goatgra (jointed goatgrass; Rate 125 g/ha, 0 to 100 scale): 15 | Plant response rating, Jointed goatgra (jointed goatgrass; [9]): 5 | Plant response rating, Jointed goatgra (jointed goatgrass; [5]): 50 | Plant response rating, Rape (rape; Rate 125 g/ha, 0 to 100 scale): 55 | Plant response rating, Rape (rape; [9]): 50 | Plant response rating, Rape (rape; [5]): 55 | Plant response rating, Sunflower (sunflower [2]; Rate 125 g/ha, 0 to 100 scale): 10 | Plant response rating, Sunflower (sunflower [2]; [9]): 10 | Plant response rating, Sunflower (sunflower [2]; [5]): 15 | Plant response rating, Blk nightshade (black nightshade [3]; [7]): 20 | Plant response rating, Blk nightshade (black nightshade [3]; Rate 250 g/ha, 0 to 100 scale): 60 | Plant response rating, Blk nightshade (black nightshade [3]; [8]): 90 | Plant response rating, Field violet (field violet; [7]): 0 | Plant response rating, Field violet (field violet; Rate 250 g/ha, 0 to 100 scale): 0 | Plant response rating, Field violet (field violet; [8]): 10 | Plant response rating, Kochia (kochia; [7]): 25 | Plant response rating, Kochia (kochia; Rate 250 g/ha, 0 to 100 scale): 30 | Plant response rating, Kochia (kochia; [8]): 30 | Plant response rating, Lambsquarters (lambsquarters; [7]): 50 | Plant response rating, Lambsquarters (lambsquarters; Rate 250 g/ha, 0 to 100 scale): 100 | Plant response rating, Lambsquarters (lambsquarters; [8]): 100 | Plant response rating, Sunflower (sunflower [4]; [7]): 0 | Plant response rating, Sunflower (sunflower [4]; Rate 250 g/ha, 0 to 100 scale): 0 | Plant response rating, Sunflower (sunflower [4]; [8]): 5 | Plant response rating, Wild mustard (wild mustard; [7]): 50 | Plant response rating, Wild mustard (wild mustard; Rate 250 g/ha, 0 to 100 scale): 40 | Plant response rating, Wild mustard (wild mustard; [8]): 90
